Measured values as given in publication PMC4421842 (Nature Communications, 2015).

Tests used:
E. faecalis = test: microbe, parasite or virus in culture; type: cell-based; conditions: E. faecalis, gyrA Ser83Ile
E. faecium = test: microbe, parasite or virus in culture; type: cell-based; conditions: E. faecium, gyrA Ser83Ile, parC Ser80Ile

Measured: MIC

Cc1cc(=O)n(C)c2c3c4c(cc12)c(C)cc(=O)n4CO3 [DNM, deoxynybomycin]
0.25 µg/mL: E. faecalis; C21667, parC Ser80Ile | E. faecalis; C28535, parC Ser80Ile | E. faecalis; S234, parC Ser80Ile Glu84Asp | E. faecium; C27569 | E. faecium; D1 | E. faecium; S51 | E. faecium; S122 | E. faecium; SL152

CCn1c(=O)cc(C)c2cc3c(C)cc(=O)n4c3c(c21)OC4 [DNM-2]
0.25 µg/mL: E. faecalis; C28535, parC Ser80Ile | E. faecalis; S234, parC Ser80Ile Glu84Asp
